Laboratory results published in PubChem BioAssay AID1033 (Sanford-Burnham Center for Chemical Genomics, 2008).
The source made the active and inactive calls. The rule behind the calls is not given here.

These molecules were tested against Chaperone protein DnaK (Escherichia coli (strain K12)) (UniProt P0A6Y8) (assay: binders of DnaK substrate-binding domain, biophysical, NMR, chaperone (AID 1033)). Settings: Purified DnaK SBD, NMR ligand binding.
Sequence of Chaperone protein DnaK (Escherichia coli (strain K12)) (P0A6Y8 whole entry, looked up, the tested form may be a part): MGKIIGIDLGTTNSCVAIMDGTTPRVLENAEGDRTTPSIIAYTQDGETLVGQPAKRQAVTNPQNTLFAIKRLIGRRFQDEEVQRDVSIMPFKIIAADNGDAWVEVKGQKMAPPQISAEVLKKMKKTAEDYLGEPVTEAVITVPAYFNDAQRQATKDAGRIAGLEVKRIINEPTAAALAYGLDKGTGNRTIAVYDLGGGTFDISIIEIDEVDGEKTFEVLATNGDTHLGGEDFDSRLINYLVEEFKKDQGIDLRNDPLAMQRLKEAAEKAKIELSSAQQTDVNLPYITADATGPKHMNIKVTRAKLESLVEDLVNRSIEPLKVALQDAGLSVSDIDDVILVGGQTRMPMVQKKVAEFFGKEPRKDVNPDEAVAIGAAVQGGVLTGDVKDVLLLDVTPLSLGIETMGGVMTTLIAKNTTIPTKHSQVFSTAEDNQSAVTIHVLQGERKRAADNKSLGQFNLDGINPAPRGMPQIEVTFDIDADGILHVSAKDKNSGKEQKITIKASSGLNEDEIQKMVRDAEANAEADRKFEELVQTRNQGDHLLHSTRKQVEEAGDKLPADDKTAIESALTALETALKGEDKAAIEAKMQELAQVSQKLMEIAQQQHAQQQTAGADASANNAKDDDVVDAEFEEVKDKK
`N=C1/C(=C\c2ccco2)C(=O)N=C2SC=NN12` was tested, and the Kd was > 4 mM (inactive).
`Cc1oc(-c2ccccc2)cc1CO` was tested, and the Kd was > 4 mM (inactive).
`CC(=O)Nc1cc2c(cc1C(=O)C(C)C)OCCO2` was tested, and the Kd was > 4 mM (inactive).
`O=C1Nc2ccccc2C12OCCO2` was tested, and the Kd was > 4 mM (inactive).
For `Cc1noc(C)c1C(=O)Nc1cccnc1`, the Kd was > 4 mM (inactive).
For `CC1(C)C(=O)N(O)C(C)(C)C(=O)N1O`, the Kd was > 4 mM (inactive).
In the case of `CSc1n[nH]c(NCc2cccs2)n1`, the Kd is reported as > 4 mM (inactive).
With `COC1=CC(C)[C@@H]2C[C@H]3OC(=O)C[C@H]4C(C)=C(OC)C(=O)C([C@@]34C)[C@@]2(C)C1=O` (some centres undefined) the Kd was > 4 mM (inactive).
`Cc1ccc(-c2nn3c(C)nnc3s2)cc1N` was tested, and the Kd was > 4 mM (inactive).
With `OCc1ccc(N2CCOCC2)cc1` the Kd was > 4 mM (inactive).
`O=C(O)/C=C/C(=O)Nc1ccccc1C(F)(F)F` was tested, and the Kd was > 4 mM (inactive).
For `O=C(NCc1ccccc1Cl)c1cnn2cccnc12`, the Kd was > 4 mM (inactive).
`CCn1cnc2cc([N+](=O)[O-])ccc2c1=O` was tested, and the Kd was > 4 mM (inactive).
`Cc1cccc(C(C)C)c1NC(=O)c1cccnc1` was tested, and the Kd was > 4 mM (inactive).
With `COc1ccc(/C=C2/SC(N)=NC2=O)c(OC)c1` the Kd was > 4 mM (inactive).
`NC(CC(=O)O)C(=O)Nc1ccc(Cl)cc1` (centres undefined) was tested, and the Kd was > 4 mM (inactive).
With `O=C(c1ccncc1)N1CCN(C(=O)c2ccncc2)CC1` the Kd was > 4 mM (inactive).
With `NC(=O)Cn1nnc(-c2ccc(C(F)(F)F)cc2)n1` the Kd was > 4 mM (inactive).
In the case of `O=C1NC(=S)N/C1=C\c1cccnc1`, the Kd is reported as > 4 mM (inactive).
For `c1cncc(C(N2CCOCC2)N2CCOCC2)c1`, the Kd was > 4 mM (inactive).
In the case of `CCOC(=O)c1snnc1-c1ccccc1`, the Kd is reported as > 4 mM (inactive).
For `c1csc(-c2nnc3ccccn23)c1`, the Kd was > 4 mM (inactive).
For `CS/C(N)=C\C(C)=O`, the Kd was > 4 mM (inactive).
For `CN(C)C(=O)CCNS(=O)(=O)c1ccccc1`, the Kd was > 4 mM (inactive).
In the case of `O=S1(=O)C=CC(Nc2ccccc2)C1` (centres undefined), the Kd is reported as > 4 mM (inactive).
For `CNC(=S)Nc1ncn(Cc2cccc(F)c2)n1`, the Kd was > 4 mM (inactive).
For `CC(=O)Nc1ccc(NC2SC(=O)NC2=O)cc1` (centres undefined), the Kd was > 4 mM (inactive).
In the case of `NC(=O)CC1Sc2ccccc2NC1=O` (centres undefined), the Kd is reported as > 4 mM (inactive).
`COC(=O)c1noc(C)c1C(C)=O` was tested, and the Kd was > 4 mM (inactive).
For `COc1ccc(-c2ccc(OC)cc2C(=O)O)cc1`, the Kd was > 4 mM (inactive).
In the case of `CC(C)c1ccc2c(c1)CCC1C(C)(C(N)=O)CCCC21C` (centres undefined), the Kd is reported as > 4 mM (inactive).
With `O=C(O)C1=Cc2ccccc2OC1` the Kd was > 4 mM (inactive).
With `O=C(O)Cc1n[nH]c(=O)c2ccccc12` the Kd was > 4 mM (inactive).
`O=S(=O)(Cc1ccccc1Cl)Nc1ccccn1` was tested, and the Kd was > 4 mM (inactive).
`CC(C)(C)NC(=O)CN1C(=O)c2ccccc2S1(=O)=O` was tested, and the Kd was > 4 mM (inactive).
With `CC(=O)NC(C)C12CC3CC(CC(C(=O)O)(C3)C1)C2` (centres undefined) the Kd was > 4 mM (inactive).
In the case of `COc1cc2ccc(=O)oc2c2ccoc12`, the Kd is reported as > 4 mM (inactive).
In the case of `N#Cc1cccc(Cn2nnc(-c3ccccc3)n2)c1`, the Kd is reported as > 4 mM (inactive).
`Cc1ccc(C(=O)Nc2nnc(-c3ccncc3)s2)o1` was tested, and the Kd was > 4 mM (inactive).
With `Cc1c(C(=O)Nc2cnccn2)oc2ccccc12` the Kd was > 4 mM (inactive).
In the case of `CCOc1cc(S(=O)(=O)N2CCOCC2)ccc1F`, the Kd is reported as > 4 mM (inactive).
In the case of `NN1C(=O)/C(=C/c2ccc(O)c(O)c2)SC1=S`, the Kd is reported as > 4 mM (inactive).
In the case of `O=C(c1cccs1)N1CCCc2ccccc21`, the Kd is reported as > 4 mM (inactive).
In the case of `O=C(O)c1cn(-c2ccccc2)nc1-c1ccncc1`, the Kd is reported as > 4 mM (inactive).
For `OCc1ccc2nsnc2c1`, the Kd was > 4 mM (inactive).
For `OCc1ccc(-n2ccnc2)cc1`, the Kd was > 4 mM (inactive).
In the case of `c1ccc(-c2nnc3sc(-c4ccncc4)nn23)cc1`, the Kd is reported as > 4 mM (inactive).
For `O=c1c(-c2ccco2)[n+]([O-])c2ccccc2n1O`, the Kd was > 4 mM (inactive).
With `Cc1onc(-c2ccccc2)c1C(=O)Nc1ccncc1` the Kd was > 4 mM (inactive).
In the case of `CC(=O)O[C@H]1C[C@@]2(C)[C@@H](C[C@@H](O)C3[C@]2(C)CC[C@H]2[C@H](C)[C@H](O)CC[C@]32C)/C1=C(/CCC=C(C)C)C(=O)O` (some centres undefined), the Kd is reported as > 4 mM (inactive).
`O=C1C2CC=CCC2C(=O)N1c1ccccc1O` (centres undefined) was tested, and the Kd was > 4 mM (inactive).
With `O=C(O)c1scc2c1CCCC2` the Kd was > 4 mM (inactive).
For `Cc1ccc(SCc2nc(-c3cccnc3)no2)cc1`, the Kd was > 4 mM (inactive).
For `Cc1cc(C(=O)NCc2ccco2)cs1`, the Kd was > 4 mM (inactive).
For `CC(C)=CCCC1(C)C=Cc2c(O)c3c(c(CC=C(C)C)c2O1)OC12C(=CC4CC1C(C)(C)OC2(C/C=C(/C)C(=O)O)C4O)C3=O` (centres undefined), the Kd was > 4 mM (inactive).
With `C/C1=C/CC(C)(C)/C=C/C/C(C)=C/CC1` the Kd was > 4 mM (inactive).
For `CC(C)(C)NC(=O)N1CCC(C(N)=O)CC1`, the Kd was > 4 mM (inactive).
For `O=C1C=C(O)c2ccccc2C1=O`, the Kd was > 4 mM (inactive).
Molecule `O=C(Nc1ncc2ccccc2n1)c1cccs1` has a Kd of less than 0.2 mM.
For `O=S(=O)(Nc1cccnc1Cl)c1ccccc1`, the Kd was > 4 mM (inactive).
With `Cn1c(SCC(N)=O)nc2c1c(=O)[nH]c(=O)n2C` the Kd was > 4 mM (inactive).
With `Nc1cc(C(F)(F)F)ccc1N1CCOCC1` the Kd was > 4 mM (inactive).
For `Cc1occc1C(=O)N1CCC2(CC1)OCCO2`, the Kd was > 4 mM (inactive).
In the case of `Cc1noc(-c2ccccc2)c1C(=O)O`, the Kd is reported as > 4 mM (inactive).
`CCCCCCCCCCCCCCC(C(=O)OC)C(O)(CC(=O)OC)C(=O)OC` (centres undefined) was tested, and the Kd was > 4 mM (inactive).
In the case of `NNC(=O)c1ccccc1-n1cccc1`, the Kd is reported as > 4 mM (inactive).
`C/C=C(/C)C(=O)O[C@H]1CC[C@@]2(C)[C@@H]3CC[C@H]4[C@]5(O)C[C@H](O)[C@@]6(O)[C@@H](CN7C[C@@H](C)CC[C@H]7[C@@]6(C)O)[C@]5(O)C[C@@]42OC13O` was tested, and the Kd was > 4 mM (inactive).
`c1cnc(N2CCNCC2)nc1` was tested, and the Kd was > 4 mM (inactive).
With `CCOCC(=O)NCc1n[nH]c(=O)c2ccccc12` the Kd was > 4 mM (inactive).
For `COc1cc([C@@H]2c3cc4c(cc3[C@H](OC(C)=O)[C@H]3COC(=O)[C@H]23)OCO4)cc(OC)c1OC`, the Kd was > 4 mM (inactive).
In the case of `CCOc1ccc(N2C(=O)CCC2=O)cc1`, the Kd is reported as > 4 mM (inactive).
With `ON=c1ccc2nc3ccccc3nc2cc1` the Kd was > 4 mM (inactive).
With `O=[N+]([O-])c1cccc(CN2CCC(O)CC2)c1` the Kd was > 4 mM (inactive).
`O=c1[nH]cc(COCc2ccccc2)c(=O)[nH]1` was tested, and the Kd was > 4 mM (inactive).
With `CSc1n[nH]c(NCc2ccccc2)n1` the Kd was > 4 mM (inactive).
For `CCOc1ccc(-c2c(=O)n(O)c3ccccc3[n+]2[O-])cc1`, the Kd was > 4 mM (inactive).
With `S=C(NC1=NCCS1)Nc1ccccc1` the Kd was > 4 mM (inactive).
With `C=C1C2CC[C@@]3(C)[C@H](c4ccoc4)OC(=O)C[C@]13O[C@H]1CC(O)C(C)(C)C(CC(=O)OC)[C@@]21C` (some centres undefined) the Kd was > 4 mM (inactive).
With `Cn1cccc1C(=S)N1CCOCC1` the Kd was > 4 mM (inactive).
With `Cn1nnc2c(Cl)ncnc21` the Kd was > 4 mM (inactive).
In the case of `Nc1ncnc(Cl)c1[N+](=O)[O-]`, the Kd is reported as > 4 mM (inactive).
In the case of `Nc1cc(=O)[nH]c(=S)n1-c1cccc(C(F)(F)F)c1`, the Kd is reported as > 4 mM (inactive).
With `Cc1cc(N(CN2CCCC2=O)C(=O)c2ccccc2)no1` the Kd was > 4 mM (inactive).
With `O=C(O)CCCCC1SCC2NC(=O)NC21` (centres undefined) the Kd was > 4 mM (inactive).
